The target in one experiment is T1, human CD38 (Homo sapiens, UniProt P28907).
T1 sequence (P28907 1-300): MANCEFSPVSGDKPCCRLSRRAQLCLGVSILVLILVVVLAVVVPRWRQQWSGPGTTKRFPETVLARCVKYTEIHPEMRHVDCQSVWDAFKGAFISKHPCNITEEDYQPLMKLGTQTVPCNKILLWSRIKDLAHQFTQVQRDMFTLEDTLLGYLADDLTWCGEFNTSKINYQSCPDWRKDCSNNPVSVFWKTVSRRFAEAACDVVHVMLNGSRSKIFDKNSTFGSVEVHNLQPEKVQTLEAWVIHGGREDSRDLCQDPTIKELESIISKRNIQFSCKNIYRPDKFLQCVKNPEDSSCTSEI
As to the kind of experiment: human recombinant CD38 enzyme assay (hydrolysis of NAD+). The class given is biochemical. The following applies: human recombinant CD38, 0.4 nM enzyme, 62.5 μM NAD+; read-out: hCD38 BioChem IC50. Put shortly:
(§1)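 Residual NAD+ after 60 min of cell-free hydrolysis by recombinant mouse or human CD38 at ambient temperature, measured over a dose range. Detection used ADH conversion to NADH, then diaphorase-coupled resazurin-to-resorufin fluorescence (Ex/Em 540/590 nm).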

For the next experiment, the target named is T2, mouse CD38 (Mus musculus, UniProt P56528).
T2 sequence (P56528 1-304): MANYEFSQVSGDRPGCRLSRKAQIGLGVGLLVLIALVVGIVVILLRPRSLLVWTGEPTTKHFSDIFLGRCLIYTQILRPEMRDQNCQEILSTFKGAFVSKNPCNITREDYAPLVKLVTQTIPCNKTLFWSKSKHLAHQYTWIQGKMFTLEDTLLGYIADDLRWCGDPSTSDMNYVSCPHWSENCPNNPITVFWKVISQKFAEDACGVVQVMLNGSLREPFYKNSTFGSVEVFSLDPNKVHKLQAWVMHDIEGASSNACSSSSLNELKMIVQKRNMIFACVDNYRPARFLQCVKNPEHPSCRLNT
The experiment can be described thus: mouse recombinant CD38 enzyme assay (hydrolysis of NAD+). In kind it is biochemical. The following applies: read-out: mCD38 BioChem IC50. Put shortly:
as §1

The target in experiment [1] is T3, endogenous CD38 in HL60 cells (Homo sapiens, UniProt P28907).
T3 construct: endogenous in cells; host or cells: HL60 (leukemic cells, treated with all-trans retinoic acid)
T3 sequence (P28907 1-300): T1 sequence (P28907 1-300)
As to the kind of experiment: cellular CD38 assay in HL60 cells (cellular NAD levels). In kind it is cell-based. The settings on record: all-trans retinoic acid, 24 hours, read-out: hCD38 HL60 ATRA NAD Cell Diaphorase IC50. As to the method:
The compounds described herein were also assayed for their ability to inhibit the endogenous CD38 in a native cellular environment in the cellular CD38 assay, which measures the ability of the compound to modulate cellular NAD levels. […] The assays were initiated by plating 20 μL of HL60 cells in culture medium, at a density of 20000 cells per well to a 384-well Corning™ Multiwell Plates. Compounds in DMSO were added to the plates in a volume of 120 nL using the Labcyte Echo Liquid Handlers. […] The plates are then incubated for 24 hours. 50 μL of a readout-solution containing 0.2 U/mL Diaphorase enzyme, 40 uM resazurin, 10 uM FMN, 0.8 U/mL Alcohol dehydrogenase, 3% ethanol, 0.4 mg/mL bovine serum albumin, 0.2% Triton X-100 in 100 mM Tris-HCl, 30 mM EDTA, pH 8.4. The plates were read for fluorescence (Excitation/Emission=540 nm/590 nm) using an EnVision plate reader after 60 mins of incubation at ambient temperature. Note that, in Table 5, the “Compound No” corresponds to the compound numbers in Table 1.

A word on the IC50: it is the midpoint of a concentration-inhibition curve. As to `COCCO[C@H]1CC[C@H](NC(=O)c2nc(-n3ccnc3)ccc2F)CC1` [Compound 43, 3-fluoro-6-(1H-imidazol-1-yl)-N-(4-(2-methoxyethoxy)cyclohexyl)picolinamide], the results for the IC50 (at human CD38; at mouse CD38; in experiment [1]) were 0.2 µM, 0.032 µM and 7.49 µM, respectively.

For the molecule `CC(=O)N1CCC(NC(=O)c2cccc(-n3ccnc3)n2)CC1` [Compound 44, N-(1-acetylpiperidin-4-yl)-6-(1H-imidazol-1-yl)picolinamide], the IC50 was determined as 0.098 µM at human CD38, 0.066 µM at mouse CD38 and 5.82 µM in experiment [1].

In the case of `COC(=O)N1CCC(NC(=O)c2cccc(-n3ccnc3)n2)CC1` [Compound 45, methyl 4-(6-(1H-imidazol-1-yl)picolinamido)piperidine-1-carboxylate], the IC50 on human CD38 stood at 0.082 µM; at mouse CD38 it was 0.044 µM; in experiment [1], 4.69 µM.

Take `CC(=O)N1CC2(CC(NC(=O)c3cccc(-n4ccnc4)n3)C2)C1` [Compound 47, N-(2-acetyl-2-azaspiro[3.3]heptan-6-yl)-6-(1H-imidazol-1-yl)picolinamide]: the IC50 at human CD38 stood at 0.417 µM; at mouse CD38 it was 0.1 µM; in experiment [1], 9.15 µM.

Consider `COC(=O)N1CC2(CC(NC(=O)c3cccc(-n4ccnc4)n3)C2)C1` [Compound 48, methyl 6-(6-(1H-imidazol-1-yl)picolinamido)-2-azaspiro[3.3]heptane-2-carboxylate], for which the IC50 is 0.244 µM at human CD38, 0.046 µM at mouse CD38 and 3.76 µM in experiment [1].

With `O=C(NC1CCCOC1)c1cccc(-n2ccnc2)n1` (stereo not drawn) [Compound 49, 6-(1H-imidazol-1-yl)-N-(tetrahydro-2H-pyran-3-yl)picolinamide], the values for the IC50 (on human CD38; at mouse CD38; in experiment [1]) were 0.088 µM, 0.029 µM and 3.37 µM, respectively.

With `Cc1cc(NC(=O)c2cccc(-c3cncs3)n2)ccn1` [Compound 52, N-(2-methylpyridin-4-yl)-6-(thiazol-5-yl)picolinamide], the IC50 at human CD38 came out at 0.678 µM; on mouse CD38, 0.292 µM; in experiment [1], 11.4 µM.

On to `O=C(Nc1ccc(C(F)(F)F)nc1)c1ccc(F)c(-n2ccnc2)n1` [Compound 53, 5-fluoro-6-(1H-imidazol-1-yl)-N-(6-(trifluoromethyl)pyridin-3-yl)picolinamide], for which the IC50 at human CD38 turned out to be 0.01 µM; on mouse CD38, 0.01 µM; in experiment [1], 0.675 µM.

For the molecule `COCCO[C@H]1CC[C@H](NC(=O)c2ccc(F)c(-n3ccnc3)n2)CC1` [Compound 54, 5-fluoro-6-(1H-imidazol-1-yl)-N-(4-(2-methoxyethoxy)cyclohexyl)picolinamide], the IC50 on human CD38 came to 0.189 µM; at mouse CD38 it was 0.038 µM; in experiment [1] it was 8.28 µM.

`O=C(Nc1ccc(C(F)(F)F)nc1)c1cncc(-n2ccnc2)n1` [Compound 55, 6-(1H-imidazol-1-yl)-N-(6-(trifluoromethyl)pyridin-3-yl)pyrazine-2-carboxamide]: the IC50 on human CD38 is 0.005 µM; on mouse CD38, 0.01 µM; in experiment [1], 0.522 µM.

For the molecule `O=C(Nc1cccnc1)c1cncc(-n2ccnc2)n1` [Compound 56, 6-(1H-imidazol-1-yl)-N-(pyridin-3-yl)pyrazine-2-carboxamide], the IC50 came out at 0.005 µM at human CD38, 0.006 µM at mouse CD38 and 0.263 µM in experiment [1].

For the molecule `CO[C@@H]1CC[C@@H](NC(=O)c2cccc(-n3ccnc3)n2)C1` [Compound 57, 6-(1H-imidazol-1-yl)-N-(3-methoxycyclopentyl)picolinamide], the concentration for half-maximal inhibition (IC50) at human CD38 is 0.187 µM; at mouse CD38 it was 0.036 µM; in experiment [1], 4.55 µM.

Take `Cn1cncc1-c1cccc(C(=O)Nc2cccnc2)n1` [Compound 59, 6-(1-Methyl-1H-imidazol-5-yl)-N-(pyridin-3-yl)picolinamide]: the IC50 came to 0.025 µM on human CD38, 0.018 µM at mouse CD38 and 0.769 µM in experiment [1].

Regarding `CO[C@H]1CC[C@H](NC(=O)c2cc(C(F)(F)F)cc(-n3ccnc3)n2)CC1` [Compound 60, 6-(1H-imidazol-1-yl)-N-(4-methoxycyclohexyl)-4-(trifluoromethyl)picolinamide], the IC50 on human CD38 worked out at 0.061 µM; on mouse CD38 it was 0.012 µM; in experiment [1], 4.81 µM.

With `COCCO[C@H]1CC[C@H](NC(=O)c2cc(C(F)(F)F)cc(-n3ccnc3)n2)CC1` [Compound 61, 6-(1H-imidazol-1-yl)-N-(4-(2-methoxyethoxy)cyclohexyl)-4-(trifluoromethyl)picolinamide], the IC50 stood at 0.073 µM at human CD38, 0.013 µM at mouse CD38 and 7.85 µM in experiment [1].

Regarding `O=C(N[C@H]1CC[C@H](O)CC1)c1cc(C(F)(F)F)cc(-n2ccnc2)n1` [Compound 62, N-(4-hydroxycyclohexyl)-6-(1H-imidazol-1-yl)-4-(trifluoromethyl)picolinamide], the IC50 came to 0.061 µM on human CD38, 0.012 µM at mouse CD38 and 6.71 µM in experiment [1].

With `O=C(NC1CCOC1)c1cccc(-n2ccnc2)n1` (stereo not drawn) [Compound 63, 6-(1H-imidazol-1-yl)-N-(tetrahydrofuran-3-yl)picolinamide], the IC50 was 0.404 µM on human CD38, 0.163 µM at mouse CD38 and 5.91 µM in experiment [1].

`O=C(N[C@H]1CC[C@H](C(F)F)CC1)c1cccc(-n2ccnc2)n1` [Compound 64, N-(4-(difluoromethyl)cyclohexyl)-6-(1H-imidazol-1-yl)picolinamide]: the values for the half-inhibitory concentration (IC50) (at human CD38; at mouse CD38; in experiment [1]) were 0.034 µM, 0.007 µM and 2.42 µM, respectively.

For `COCCO[C@H]1CC[C@H](NC(=O)c2cccc(-c3cncn3C)n2)CC1` [Compound 65, N-(4-(2-methoxyethoxy)cyclohexyl)-6-(1-methyl-1H-imidazol-5-yl)picolinamide], the IC50 at human CD38 was 0.224 µM; on mouse CD38, 0.062 µM; in experiment [1], 7.69 µM.

On to `NC(=O)c1cncn1-c1cccc(C(=O)Nc2ccc(C(F)(F)F)nc2)n1` [Compound 66, 6-(5-carbamoyl-1H-imidazol-1-yl)-N-(6-(trifluoromethyl)pyridin-3-yl)picolinamide], for which the IC50 was determined as 0.091 µM on human CD38, 0.19 µM on mouse CD38 and 3.43 µM in experiment [1].

Take `O=C(Nc1ccc(C(F)(F)F)nc1)c1ccnc(-n2ccnc2)n1` [Compound 67, 2-(1H-imidazol-1-yl)-N-(6-(trifluoromethyl)pyridin-3-yl)pyrimidine-4-carboxamide]: the IC50 at human CD38 worked out at 0.004 µM; on mouse CD38, 0.009 µM; in experiment [1], 0.409 µM.

With `O=C(N[C@H]1CC[C@H](C(F)F)CC1)c1ccnc(-n2ccnc2)n1` [Compound 68, N-((1r,4r)-4-(difluoromethyl)cyclohexyl)-2-(1H-imidazol-1-yl)pyrimidine-4-carboxamide], the half-maximal inhibitory concentration (IC50) came to 0.016 µM on human CD38, 0.006 µM at mouse CD38 and 1.32 µM in experiment [1].

As to `Cn1cncc1-c1nccc(C(=O)Nc2ccc(C(F)(F)F)nc2)n1` [Compound 69, 2-(1-methyl-1H-imidazol-5-yl)-N-(6-(trifluoromethyl)pyridin-3-yl)pyrimidine-4-carboxamide], the IC50 at human CD38 came to 0.003 µM; at mouse CD38 it was 0.002 µM; in experiment [1] it was 0.481 µM.

Consider `Cn1cncc1-c1nccc(C(=O)N[C@H]2CC[C@H](C(F)F)CC2)n1` [Compound 70, N-((1r,4r)-4-(difluoromethyl)cyclohexyl)-2-(1-methyl-1H-imidazol-5-yl)pyrimidine-4-carboxamide], for which the IC50 on human CD38 amounted to 0.005 µM; at mouse CD38, 0.001 µM; in experiment [1] it was 0.77 µM.

For the molecule `Cn1cncc1-c1cccc(C(=O)Nc2ccc(C(F)(F)F)nc2)n1` [Compound 71, 6-(1-methyl-1H-imidazol-5-yl)-N-(6-(trifluoromethyl)pyridin-3-yl)picolinamide], the IC50 came to 0.015 µM on human CD38, 0.025 µM on mouse CD38 and 1.44 µM in experiment [1].

The record behind these values is patent publication US20230116972A1, “CD38 MODULATORS AND METHODS OF USE THEREOF” (Cytokinetics, Inc., priority 2021, published 2023).
